Reference: patent US6482827B1, “Matrix metalloproteinase inhibitors” (Pharmacia & Upjohn S.p.A., priority 1997, dated 2002)

Assays:
[1] = target: T1, Human stromelysin-1-255 (MMP-3) (Homo sapiens, UniProt P08254); assay: Biochemical assay (Protocol A), Ki at steady state, MMP-3; conditions: preincubation, 37° C., pH=7.4, read-out: Ki at steady state (Ki*) for inhibition of MMP-3
T1 construct: host or cells: E. coli
Method: (§1) Human gelatinase-A (MMP-2) was obtained as pro-enzyme (72 kDa) and was activated with 1 mM 4-aminophenylmercuric acetate for 30 min at 37° C. immediately prior to use. Human stromelysin-1-255 (MMP-3) was obtained as a recombinant pro-enzyme isolated from E. coli and activated by heat (1 h, 55° C.).
(§2) The substrate was the commercial quenched-fluorescence peptide Mca-Pro-Leu-Gly-Leu-Dpa-Ala-Arg-NH2, that is (7-methoxycoumarin4-yl)Acetyl-Pro-Leu-Glv-Leu-(3-[2,4-dinitrophenyl]-L-2,3-diamino-propionyl)-Ala-Arg-NH2 (C. G. Knight et al., FEBS Lett.296:263, 1992). The enzymes cleave at the Gly-Leu bond, removing the internally quenching Dpa group. Release of the highly fluorescent peptide Mca-Pro-Leu was followed fluorimetrically at 37° C. using a Perkin Elmer LS-50 Fluorescence Spectrophotometer fitted with a thermostatted four position stirring cell changer. The excitation wavelength was set at 326 nm (bandwidth 5 nm) and the emission at 392 nm (bandwidth 20 nm). Km values of this substrate for the three MMP's is 70 μM or more (Knight et al., reference above). Substrate concentration was 2 μM in the tests, so that we could approximate to unit the term (1+[substrate]/KM) in calculations. The substrate was stable for over 60 minutes in the assay conditions, giving no appreciable increment of fluorescence. Full response was adjusted against 200 nM Mca-Pro-Leu-OH (the released fluorescent peptide) and the instrument was calibrated in the range 0-100 nM Mca-Pro-Leu-OH, corresponding to 0-5% extent of hydrolysis of the 2 μM substrate. The aqueous assay buffer was 50 mM Tris/HCl pH=7.4 containing 0.15 M NaCl, 10 mM CaCl2, 0.01 mM ZnCl2 and 0.05% Brij 35. The concentration of the activated enzyme was determined by titration against representative inhibitors described in the literature and synthesized in house: Roche Ro31-9790 (N. G. Knebel et al., J. Chromatogr. B 673:213, 1995) for MMP-1, and Celltech CT-1418 (compound 1 in S. K. Chander, J. Pharm. Sci. 84:404, 1995) for MMP-2 and MMP-3. Enzyme concentrations in the tests were set at 1.0 nM for MMP-1, 0.04 nM for MMP-2, and 3.0 nM for M-3. Under our assay conditions, we measured keat/KM values of 26900, 669000 and 9740 1/(M×s) for MMP-1, MMP-2 and MMP-3, respectively. All the three enzymes were found stable for over three hours in the assay conditions.
(§3) The inhibition constant for compounds of the present invention was measured at steady state (Ki*; see J. F. Morrison and C. T. Walsh, Adv. Enzymol. Relat. Areas Mol. Biol. 61:201, 1988), upon preincubation experiment, by measuring V0, the initial rate in the absence of inhibitor, and Vs, the steady-state velocity, at different concentrations of inhibitors in the region of their enzyme-inhibitor dissociation constants.
(§4) On a routine basis, 1.94 mL of assay buffer was pre-heated at 37° C. in a vial, 0.02 mL of inhibitor in DMSO (or DMSO only), and 0.02 ml of 100 nM MMP-1 or 4 nM MMP-2 or 300 nM MMP-3 were added, mixed, and the vial was held at 37° C. for 5-180 minutes. Then 0.02 ml of 0.2 mM substrate was added, mixed and transferred into a pre-heated cell. The sample was allowed to equilibrate in the cuvette for 3-5 min at 37° C. against small changes in temperature and changes in the enzyme-inhibitor equilibria related to addition of substrate. After that, the linear increase of fluorescence was monitored over 3-5 min, and the slope (Vo or Vs) was obtained. Inhibitor concentrations were varied to collect data over Vs/Vo ratio ranging from 0.05 to 0.95. The values of Ki* were calculated by nonlinear weighted regression to the tight-binding equation according to Morrison and Walsh above:
(§5) Vs/Vo=[1/(2×Et)]×SQR[(Ki*+It−Et)^2+4×Ki*×Et]−(Ki*+It−Et)
(§6) wherein Et is the total enzyme concentration, and It is the total inhibitor concentration. The following Table I lists Ki* obtained for some representative examples: […]

[2] = target: T2, Human collagenase (MMP-1) (Homo sapiens, UniProt P03956); assay: Biochemical assay (Protocol A), Ki at steady state, MMP-1; conditions: preincubation, 37° C., pH=7.4, read-out: Ki at steady state (Ki*) for inhibition of MMP-1
T2 sequence (P03956 101-269): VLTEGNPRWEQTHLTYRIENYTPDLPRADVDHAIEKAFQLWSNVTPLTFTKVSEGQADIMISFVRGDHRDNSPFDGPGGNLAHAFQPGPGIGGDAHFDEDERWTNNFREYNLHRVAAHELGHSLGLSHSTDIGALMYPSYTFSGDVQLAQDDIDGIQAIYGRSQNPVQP
Method: as §1, §2, §3, §4, §5, §6

[3] = target: T3, Human gelatinase-A (MMP-2) (Homo sapiens, UniProt P08253); assay: Biochemical assay (Protocol A), Ki at steady state, MMP-2; conditions: preincubation, 37° C., pH=7.4, read-out: Ki at steady state (Ki*) for inhibition of MMP-2
T3 sequence (P08253 110-660): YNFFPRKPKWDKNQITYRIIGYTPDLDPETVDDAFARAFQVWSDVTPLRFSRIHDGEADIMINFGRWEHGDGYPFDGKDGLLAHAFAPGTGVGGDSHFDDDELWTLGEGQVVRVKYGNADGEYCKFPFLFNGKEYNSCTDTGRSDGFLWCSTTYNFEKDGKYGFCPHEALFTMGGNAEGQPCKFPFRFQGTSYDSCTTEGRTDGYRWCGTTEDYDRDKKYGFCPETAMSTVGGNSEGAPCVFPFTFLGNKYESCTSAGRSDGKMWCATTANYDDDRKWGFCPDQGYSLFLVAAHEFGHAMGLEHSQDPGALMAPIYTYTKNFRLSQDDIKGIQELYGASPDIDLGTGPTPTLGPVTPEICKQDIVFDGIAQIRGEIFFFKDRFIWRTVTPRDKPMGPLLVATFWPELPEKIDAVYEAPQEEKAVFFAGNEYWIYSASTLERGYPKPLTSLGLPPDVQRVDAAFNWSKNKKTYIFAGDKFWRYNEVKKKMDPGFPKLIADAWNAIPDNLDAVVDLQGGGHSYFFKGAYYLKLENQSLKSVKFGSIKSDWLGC
Method: as §1, §2, §3, §4, §5, §6

T1 sequence (P08254 100-255 limits assumed): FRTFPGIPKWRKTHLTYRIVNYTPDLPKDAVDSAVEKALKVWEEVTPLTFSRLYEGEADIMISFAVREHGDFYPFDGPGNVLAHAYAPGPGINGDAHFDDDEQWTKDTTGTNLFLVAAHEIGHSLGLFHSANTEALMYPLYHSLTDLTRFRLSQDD

SMILES	Ki [1] [nM]	Ki [2] [nM]	Ki [3] [nM]
COc1ccc(CCC[C@@H](C(=O)N2CCOCC2)[C@H](NC(=O)OC(C)(C)C)C(=O)NO)cc1 [Example 15, (3S-tert-Butoxycarbonylamino-4-hydroxyamino-2R-(4-methoxy)phenpropyl)succinyl-morpholinamide]	6500	17000	630
COc1ccc(CCC[C@@H](C(=O)N2CCCCC2)[C@H](NC(=O)OC(C)(C)C)C(=O)NO)cc1 [Example 17, (3S-tert-Butoxycarbonylamino-4-hydroxyamino-2R-(4-methoxy)phenpropyl)succinyl-piperidinamide]	4300	9400	610
COc1ccc(CCC[C@@H](C(=O)N2CCOCC2)[C@H](NS(=O)(=O)c2ccc(OC)cc2)C(=O)NO)cc1 [Example 20, (4-Hydroxyamino-3S-(4-methoxyphenylsulfonyl)amino-2R-(4-methoxy)phenpropyl)succinyl-morpholinamide]	390	2000	40
COc1ccc(S(=O)(=O)N[C@H](C(=O)NO)[C@@H](CC2CCCC2)C(=O)N2CCCCC2)cc1 [Example 23, (2R-Cyclopentylmethyl-4-hydroxyamino-3S-(4-methoxyphenylsulfonyl)amino)succinyl-piperidinamide]	145	3	16
CC(C)C[C@@H](C(=O)NC(C1CCCCC1)C1CCCCC1)[C@H](N)C(=O)NO [Example 24, (3S-Amino-4-hydroxyamino-2R-isobutyl)succinyl-dicyclohexylmethylamide]	11000	170	400
CC(C)C[C@@H](C(=O)NC(c1ccccc1)c1ccccc1)[C@H](N)C(=O)NO [Example 25, (3S-Amino-4-hydroxyamino-2R-isobutyl)succinyl-diphenylmethylamide]	2300	76	190
CC(C)(C)OC(=O)N[C@H](C(=O)NO)[C@@H](CC1CCCC1)C(=O)N1CCN(Cc2ccc3c(c2)OCO3)CC1 [Example 26, (3S-tert-Butoxycarbonylamino-2R-cyclopentylmethyl-4-hydroxyamino)succinyl-(4-piperonyl)piperazinamide]	600	71	100
COc1ccc(CCC[C@@H](C(=O)N2CCC2)[C@H](N)C(=O)NO)cc1 [Example 28, (3S-Amino-4-hydroxyamino-2R-(4-methoxy)phenpropyl)succinyl-azetidinamide]	10000	7500	600
CN(C)[C@H](C(=O)NO)[C@@H](CC1CCCC1)C(=O)N1CCCCC1 [Example 30, (2R-Cyclopentylmethyl-3S-N,N-dimethylamino-4-hydroxyamino)succinyl-piperidinamide]	270	3.6	25
COc1ccc(CCC[C@@H](C(=O)N[C@H](C)C2CCCCC2)[C@H](N)C(=O)NO)cc1 [Example 32, (3S-Amino-4-hydroxyamino-2R-(4-methoxy)phenpropyl)succinyl-(1R-cyclohexylethyl)amide]	500	2600	37
COc1ccc(CCC[C@@H](C(=O)N[C@@H](C)C2CCCCC2)[C@H](N)C(=O)NO)cc1 [Example 33, (3S-Amino-4-hydroxyamino-2R-(4-methoxy)phenpropyl)succinyl-(1S-cyclohexylethyl)amide]	6600	> 10000	460
COc1ccc(CCC[C@@H](C(=O)N2CCC(C(=O)NC(C)(C)C)CC2)[C@H](N)C(=O)NO)cc1 [Example 34, (3S-Amino-4-hydroxyamino-2R-(4-methoxy)phenpropyl)succinyl-(4-tert-butylaminocarbonyl)piperidinamide]	1400	2400	21
CN(C)[C@H](C(=O)NO)[C@@H](CC1CCCC1)C(=O)N1CCN(Cc2ccc3c(c2)OCO3)CC1 [Example 35, (2R-Cyclopentylmethyl-3S-N,N-dimethylamino-4-hydroxyamino)succinyl-(4-piperonyl)-piperazinamide]	31	2.9	8
COc1ccc(S(=O)(=O)N[C@H](C(=O)NO)[C@@H](CC2CCCC2)C(=O)N2CCN(Cc3ccc4c(c3)OCO4)CC2)cc1 [Example 37, (2R-Cyclopentylmethyl-4-hydroxyamino-3S-(4-methoxyphenyl)sulfonylamino)succinyl-(4-piperonyl)piperazinamide]	35	1.8	2.6
COc1ccc(CCC[C@@H](C(=O)N2CCCCC2)[C@H](NCc2cccnc2)C(=O)NO)cc1 [Example 39, (4-Hydroxyamino-2R-(4-methoxy)phenpropyl-3S-(3-pyridyl)methylamino)succinyl-piperidinamide]	806	760	90
COc1ccc(CCC[C@@H](C(=O)N2CCN(c3ccccn3)CC2)[C@H](N)C(=O)NO)cc1 [Example 42, (3S-Amino-4-hydroxyamino-2R-(4-methoxy)phenpropyl)succinyl-4-(2-pyridyl)piperazinamide]	760	1400	16
CNC(=O)[C@H](Cc1ccccc1)N(C)C(=O)[C@H](CC(C)C)[C@H](N)C(=O)NO [Example 44, (3S-Amino-4-hydroxyamino-2R-isobutyl)succinyl-N-methyl-N-(1S-methylaminocarbonyl-2-phenyl)ethylamide]	210	8.9	2.3
O=C(NO)[C@@H](NS(=O)(=O)c1ccc(F)cc1)[C@@H](CC1CCCC1)C(=O)N1CCCCC1 [Example 61, (2R-Cyclopentylmethyl-3S-(4-fluorophenylsulfonyl)amino-4-hydroxyamino)succinylpiperidinamide]	–	7.8	66
